Measured values taken from patent publication US20230399661A1, “SHUTTLE AGENT PEPTIDES OF MINIMAL LENGTH AND VARIANTS THEREOF ADAPTED FOR TRANSDUCTION OF CAS9-RNP AND OTHER NUCLEOPROTEIN CARGOS” (priority 2020, published 2023).

What was measured:
Type in all cases: cell-based, Human
CFF-16HBEge cells [1] = assay: ABE-Cas9-RNP delivery, base editing evaluated by next-generation sequencing; conditions: NGS, compared to non-treated cells
Experimental: (§1) For Cas9-RNP or ABE-Cas9-RNP transduction, a mix of Cas9-NLS or ABE-Cas9 recombinant protein (2.5 μM) complexed with a crRNA/tracrRNA (2 μM) targeting the beta-2 microglobulin (B2M) gene were co-incubated with 10-20 μM of synthetic peptide shuttle agent in a final volume of 50 μL completed with PBS. Cells were washed once with PBS and the shuttle/Cas9-RNP complex was added to the cells for and incubated for 60 to 90 seconds. Then 100 μL of DMEM (HeLa) or Alpha-MEM (CFF-16HBEge) containing 10% FBS was added to the mix. Cells were then immediately washed once with PBS and incubated in DMEM (HeLa) or Alpha-MEM (CFF-16HBEge) containing 10% FBS.
(§2) Further transduction experiments in CFF-16HBEge cells were performed to compare the ability of shuttle agents to deliver functional Cas9-RNP genome editing versus ABE-Cas9-RNP base editing complexes. Variants of the shuttle agent FSD10 (FIG. 8A) were tested in parallel, and genome editing/base editing results as evaluated by next-generation sequencing (NGS) are shown in FIGS. 8B and 8C for Cas9-RNP and ABE-Cas9-RNP, respectively.

CFF-16HBEge cells [2] = assay: Cas9-RNP delivery, B2M genome editing; conditions: for genome editing (Cas9-RNP): NGS, compared to non-treated cells; for genome editing with Cas9-RNP as cargo: B2M knockout, versus non-treated negative control
Experimental: HeLa cells were plated (10 000 cells/well) in a 96 well-plate the day prior to the experiment in DMEM containing 10% FBS. CFF-16HBEge cells were plated (10 000 cells/well) in a 96 well-plate the day prior to the experiment in Alpha-MEM containing 10% FBS.
as §1
Genome editing events resulting in the absence of B2M protein (knockout) at the cell surface were determined by flow cytometry 6 days post-transduction. Cells were washed once with PBS and incubated with the anti-B2 microglobulin antibody (PE conjugated) (0.5 μL of anti-B2M-PE in […] 0.5% BSA/PBS) for 45 minutes at room temperature. Cells were washed twice with PBS and detached with 50 µL of Trypsin-EDTA for 10 minutes at 37° C. then inactivated by adding 100 μL of media containing 10% FBS. The percentage of knockout cells (cells without B2M antibody signal) was determined by flow cytometry.
A similar genome editing experiment as in Example 6 was performed in the Human Bronchial Epithelial cell line model of cystic fibrosis, CFF-16HBEge.
as §2

HeLa cells [3] = assay: GFP-NLS transduction in the presence or absence of Cas9-RNP complex, flow cytometry; design: GFP transduction efficiency: concentration or dose not given beside the values; conditions: for resistance/sensitivity of GFP transduction to inhibition by Cas9-RNP: presence vs absence of Cas9-RNP
Experimental: HeLa cells were plated (20 000 cells/well) in a 96 well-plate the day prior to the experiment in DMEM containing 10% FBS. A mix was prepared containing a synthetic peptide shuttle agent (10-30 μM), the GFP-NLS (10 μM) with or without a Cas9-NLS recombinant protein (2.5 μM) complexed with a crRNA/tracrRNA (2 μM) targeting the beta-2 microglobulin (B2M) gene and completed to 50 μL with PBS. Cells were washed once with PBS and the shuttle/GFP-NLS/Cas9-RNP mix was added to the cells and incubated for one minute. Then 100 μL DMEM containing 10% FBS was added to the mix. Cells were then immediately washed once with PBS and incubated in DMEM containing 10% FBS for two hours. Cells were the analyzed by flow cytometry.
To better understand the inhibitory effect of Cas9-RNP on shuttle agent transduction activity, HeLa cells were incubated with different peptides/shuttle agents and GFP cargo, in the presence or absence of Cas9-RNP, and delivery of GFP was assessed by flow cytometry, as described in Example 1. […] For some shuttle agents, the effect was particularly striking. For example, the GFP transduction efficiency for FSD268 decreased from 92% to 29%, the GFP transduction efficiency for FSD250 decreased from 83% to 13%, the GFP transduction efficiency for FSD10 decreased from 76% to 22%, and the GFP transduction efficiency for FSD395 decreased from 91% to 17%. […] Structure-activity relationships were explored further by repeating the above transduction experiments with shuttle agent variants sharing the same “core” amphipathic cationic alpha helical region as FSD10-15 (FIG. 4A), CM18 (FIG. 4B), and FSD356 (FIG. 4C).

RH-30 cells = assay: PMO-FITC transduction in the presence of sgRNA spiked in the medium, flow cytometry; conditions: 5 μM shuttle agent, 6 μM PMO-FITC, 2 μg of sgRNA (4 μg/mL)
Text: Nuclear delivery of Cas9-sgRNA complexes (hereinafter Cas9-RNP) via first- and second-generation synthetic peptide shuttle agents generally occurs less efficiently than delivery of a Cas9 proteinaceous cargo alone (i.e., without its corresponding sgRNA; see Krishnamurthy et al., 2019, supplementary FIG. 6). The negative effect of the sgRNA (without Cas9) on shuttle agent-mediated transduction of a fluorescently-labelled charge-neutral polynucleotide analog cargo (phosphorodiamidate morpholino oligomer (PMO)) is also shown in FIG. 2A. Briefly, RH-30 cells (150,000 cells/well in 24-well dish) were contacted with a delivery mix containing 6 μM of PMO-FITC and 5 μM of the synthetic peptide shuttle agent FSD250 for 2 minutes in RPMI, in the presence of increasing amounts of sgRNA spiked in the medium. Cells were then washed, incubated in complete medium and then collected for analysis by flow cytometry after 1 h.

HeLa cells [4] = assay: GFP or PI delivery by short/truncated shuttle agents, flow cytometry; conditions: GFP or PI cargo
Experimental: HeLa cells were plated (20 000 cells/well) in a 96 well-plate the day prior to the experiment in DMEM containing 10% FBS. Each delivery mix comprising a synthetic peptide shuttle agent (10-30 μM) and GFP-NLS (10 μM) was prepared and completed to 50 μL with RPMI 1640 media. Cells were washed once with phosphate-buffered saline (PBS) and the shuttle/GFP-NLS mix was added to the cells and incubated for five minutes. Then 100 μL DMEM containing 10% FBS was added to the mix. Cells were then immediately washed once with PBS and incubated in DMEM containing 10% FBS for two hours. Cells were then analyzed by flow cytometry.
HeLa cells were plated (20 000 cells/well) in a 96 well-plate the day prior to the experiment in DMEM containing 10% FBS. […] Cells were then analyzed by flow cytometry.
To test the transduction activity of short/truncated synthetic shuttle agents (e.g., generally having less than 20 amino acids), HeLa cells were incubated with control peptides and N-terminal shuttle agent fragments of different lengths and delivery of GFP or PI was assessed by flow cytometry as described in Example 1. […] The Overall Delivery Factor represents a single number that accounts for the toxicity of each shuttle agent/peptide, as well as its ability to deliver GFP and PI, and was calculated as follows: […]

Linker-(FSD10-Cter)-Linker: negative control peptide: C-terminal cationic portion of FSD10 flanked by glycine/serine-rich linkers (GGSGGGSYARALRRQARTGGGSGGGS; Linker-(FSD10-Cter)-Linker)
base editing (ABE-Cas9-RNP) (CFF-16HBEge cells [1]): did not exhibit any detectable genome editing or base editing
genome editing (Cas9-RNP) (CFF-16HBEge cells [2]): did not exhibit any detectable genome editing

FSD10: synthetic peptide shuttle agent; FSD10-15 core, glycine/serine-rich linker and second cationic domain (KWKLARAFARAIKKLGGSGGGSYARALRRQARTG; FSD10)
GFP transduction efficiency (HeLa cells [3]; absence of Cas9-RNP): 76%
GFP transduction efficiency (HeLa cells [3]; presence of Cas9-RNP): 22%
resistance/sensitivity of GFP transduction to inhibition by Cas9-RNP (HeLa cells [3]): more sensitive to inhibition by Cas9-RNP
genome editing with Cas9-RNP as cargo (CFF-16HBEge cells [2]): failed to show any increase in genome editing

FSD374: core amphipathic cationic domain (as FSD174) flanked by short segments of non-cationic hydrophilic residues (GGSGGGSLLKIWSRLIKIWTQGRRLGGSGGGS; FSD374)
resistance/sensitivity of GFP transduction to inhibition by Cas9-RNP (HeLa cells [3]): virtually the same GFP transduction efficiency in the presence or absence of Cas9-RNP
genome editing with Cas9-RNP as cargo (CFF-16HBEge cells [2]): significant genome editing

FSD395: synthetic peptide shuttle agent (KLKLLKLLLKLLKKLGGSGGGSQAKAQAKQAK; FSD395)
GFP transduction efficiency (HeLa cells [3]; absence of Cas9-RNP): 91%
GFP transduction efficiency (HeLa cells [3]; presence of Cas9-RNP): 17%
genome editing with Cas9-RNP as cargo (CFF-16HBEge cells [2]): failed to show any increase in genome editing

FSD10-Cter: negative control peptide consisting of the C-terminal cationic portion of FSD10 alone (YARALRRQARTG; FSD10-Cter)
base editing (ABE-Cas9-RNP) (CFF-16HBEge cells [1]): did not exhibit any detectable genome editing or base editing
genome editing (Cas9-RNP) (CFF-16HBEge cells [2]): did not exhibit any detectable genome editing

FSD250: synthetic peptide shuttle agent; FSD446 with C-terminal segment replaced with a cationic segment (KWKLLKLWSRLLKLWGGSGGGSARAARQAR; FSD250)
GFP transduction efficiency (HeLa cells [3]; absence of Cas9-RNP): 83%
GFP transduction efficiency (HeLa cells [3]; presence of Cas9-RNP): 13%
cargo transduction efficiency (PMO-FITC) (RH-30 cells): reduced cargo transduction efficiency

CM18: CM series peptide, 18 amino acids long; endosome leakage domain in some first generation shuttle agents (KWKLFKKIGAVLKVLTTG; CM18) [reference compound]
GFP delivery score (HeLa cells [3]; FIGS. 3 and 4B, presence or absence of Cas9-RNP not stated): 1.8
GFP transduction efficiency (HeLa cells [3]; absence of Cas9-RNP): 32%
GFP transduction efficiency (HeLa cells [3]; presence of Cas9-RNP): 28%
resistance/sensitivity of GFP transduction to inhibition by Cas9-RNP (HeLa cells [3]): more resistant
transduction activity (HeLa cells [4]): transduction activity was observed
